Data on seven compounds can be found in patent US4180587A, “Ureylene phenylene anionic naphthalenesulfonic acids as complement inhibitors” (American Cyanamid Company, priority 1978, dated 1979).

Where two headings read alike, the source gives them in different places.

One assay has as its system human C1. Put plainly: Test Code 026 (C1 inhibitor): ability of activated human C1 to destroy fluid phase human C2 in the presence of C4. It is filed as biochemical. The note with it: activity in wells, twofold serial dilution; higher well number indicates higher activity. The source says:
(§1) An active inhibitor protects C2 from C1 and C4; (ii) Test Code 035 (C3-C9 inhibitor)--This test determines the ability of the late components of human complement (C3-C9) to lyse EAC 142 in the presence of appropriate dilutions of the test compound. An active inhibitor protects EAC 142 from lysis by human C3-C9; (iii) Test Code 036 (C-Shunt inhibitor)--In this test human erythrocytes rendered fragile are lysed in autologous serum via the shunt pathway activated by cobra venom factor in the presence of appropriate dilutions of the test compound. Inhibition of the shunt pathway results in failure of lysis; (iv) Forssman Vasculitis Test--Here, the well known complement dependent lesion, Forssman vasculitis, is produced in guinea pigs by intradermal injection of rabbit anti-Forssman antiserum. […]

Assay [1] relates to late components of human complement (C3-C9). Put plainly: Test Code 035 (C3-C9 inhibitor): lysis of EAC 142 by late components of human complement. Particulars: activity in wells, twofold serial dilution; higher well number indicates higher activity. It is filed as cell-based.
Excerpt: as §1

A further assay has as its system shunt pathway. Kind of assay: Test Code 036 (C-Shunt inhibitor): lysis of fragile human erythrocytes in autologous serum via shunt pathway activated by cobra venom factor. The format is cell-based. The note with it: activity in wells, twofold serial dilution.
Excerpt: as §1

The subject of a further assay is whole complement. Put plainly: Complement Level Reduction Test: serum of dosed guinea pigs tested for whole complement by capillary tube assay. It is filed as in vivo, guinea pig. The note with it: intraperitoneal, 200 mg/kg. The source says:
An active inhibitor protects C2 from C1 and C4; (ii) Test Code 035 (C3-C9 inhibitor)--This test determines the ability of the late components of human complement (C3-C9) to lyse EAC 142 in the presence of appropriate dilutions of the test compound. An active inhibitor protects EAC 142 from lysis by human C3-C9; (iii) Test Code 036 (C-Shunt inhibitor)--In this test human erythrocytes rendered fragile are lysed in autologous serum via the shunt pathway activated by cobra venom factor in the presence of appropriate dilutions of the test compound. Inhibition of the shunt pathway results in failure of lysis; (iv) Forssman Vasculitis Test--Here, the well known complement dependent lesion, Forssman vasculitis, is produced in guinea pigs by intradermal injection of rabbit anti-Forssman antiserum. The lesion is measured in terms of diameter, edema and hemorrhage and the extent to which a combined index of these is inhibited by prior intraperitoneal injection of the test compound at 200 mg/kg is then reported, unless otherwise stated; (v) Forssman Shock Test--Lethal shock is produced in guinea pigs by an i.v. injection of anti-Forssman antiserum and the harmonic mean death time of treated guinea pigs is compared with that of simultaneous controls; (vi) Complement Level Reduction Test--In this test, the above dosed guinea pigs, or others, are bled for serum and the complement level is determined in undiluted serum by the capillary tube method of U.S. Pat. No. 3,876,376 and compared to undosed control guinea pigs; and (vii) Cap 50 Test--Here, appropriate amounts of the test compound are added to a pool of guinea pig serum in vitro, after which the undiluted serum capillary tube assay referred to above is run. The concentration of compound inhibiting 50% is reported.
With reference to Table I, guinea pigs weighing about 300 g were dosed intravenously (i.v.) or intraperitoneally (i.p.) with 200 mg/kg of the test compound dissolved in saline and adjusted to pH 7-8. […] The serum was tested for whole complement using the capillary tube assay. Percent inhibition was calculated by comparison with simultaneous controls. The results appear in Table I together with results of tests code 026, 035, 036, Cap 50, % inhibition and Forssman shock.

The test system of another assay is complement system. Particulars: reported in literature; cited from earlier work.
The conditions of assay [2]: reported in literature; cited from earlier work.
The test system of assay [3] is total hemolytic complement activity. Particulars: in vitro; judged by reduction in total hemolytic complement activity; cited from earlier work.
Assay [4] shares this test system. Particulars: in vivo; judged by reduction in total hemolytic complement activity; cited from earlier work.

Turning to `Cc1ccc(C(=O)Nc2cc(C(=O)Nc3ccc(S(=O)(=O)[O-])c4cc(S(=O)(=O)[O-])cc(S(=O)(=O)[O-])c34)ccc2C)cc1NC(=O)Nc1cc(C(=O)Nc2cc(C(=O)Nc3ccc(S(=O)(=O)[O-])c4cc(S(=O)(=O)[O-])cc(S(=O)(=O)[O-])c34)ccc2C)ccc1C.[Na+].[Na+].[Na+].[Na+].[Na+].[Na+]` [Example 3, 8,8'-[Ureylenebis[(4-methyl-3,1-phenylenecarbonyl)imino(4-methyl-3,1-phenylenecarbonyl)imino]]di-1,3,5-naphthalenetrisulfonic acid, hexasodium salt], in the assay on human C1, the “C1 026 Wells” value was “+3 Wells”. The “C-Late 035 Wells” value in assay [1] is “+3 Wells”. Moreover, in the assay on shunt pathway, the “Shunt Inhibition 036 Wells” value was “N”. Moreover, the “In Vivo Activity (Guinea Pig) % Inhibition” value is listed as -58% in the assay on whole complement (30 minutes), -65% with whole complement (60 minutes) and -77% with whole complement (120 minutes).
In the case of `Cc1ccc(C(=O)Nc2ccc(S(=O)(=O)O)c3cc(S(=O)(=O)O)cc(S(=O)(=O)O)c23)cc1NC(=O)c1cccc(NC(=O)Nc2cccc(C(=O)Nc3cc(C(=O)Nc4ccc(S(=O)(=O)O)c5cc(S(=O)(=O)O)cc(S(=O)(=O)O)c45)ccc3C)c2)c1` [Suramin], the “C1 026 Wells” value in the assay on human C1 was “+4 Wells”. In assay [1], the “C-Late 035 Wells” value is “+2 Wells”. The “In Vivo Activity (Guinea Pig) % Inhibition” value in the assay with whole complement (30 minutes) is -9%; in the assay on whole complement (60 minutes), -17%; with whole complement (120 minutes) it was -44%. Also, in the assay on complement system, the “anticomplementary effect / activity as complement inhibitor” value is listed as “moderately active as a complement inhibitor”.
With `Nc1ccc2cc(S(=O)(=O)[O-])cc(O)c2c1N=Nc1ccc(NC(=O)Nc2ccc(N=Nc3c(N)ccc4cc(S(=O)(=O)[O-])cc(O)c34)c(S(=O)(=O)[O-])c2)cc1S(=O)(=O)[O-].[Na+].[Na+].[Na+].[Na+]` [chlorazol fast pink, 3,3'-ureylenebis[6-(2-amino-8-hydroxy-6-sulfo-1-naphthylazo)benzenesulfonic acid], tetrasodium salt], the “anticomplementary effect / activity as complement inhibitor” value in the assay with complement system is “anticomplementary effect”.
Regarding `NCCCCCC(=O)O` [epsilon-aminocaproic acid], in assay [2], the “treatment of hereditary angioneurotic edema” value is reported as “used with success”.
On to `NC[C@H]1CC[C@H](C(=O)O)CC1` [tranexamic acid], for which the “treatment of hereditary angioneurotic edema” value in assay [2] was “used with success”.
Turning to heparin, the “anticomplementary effect / activity as complement inhibitor” value in the assay on complement system is “anticomplementary effect”.
With pentosan-polysulfoester, the “anticomplementary activity on human serum” value in assay [3] and in assay [4] was “anticomplementary activity” each time.
